Laboratory results from US7064120B2, “Tricyclic pyridyl carboxamides and derivatives thereof tocolytic oxytocin receptor antagonists” (Wyeth, priority 2001, dated 2006).
pIC50: −log10 of the molar value.

Target: T1, human vasopressin V1a receptor subtype (Homo sapiens, UniProt P37288)
T1 construct: host or cells: CHO cells, stably transfected (pZeoSV vector for the Thibonnier line)
Assay: Vasopressin binding in CHO cell membranes expressing human vasopressin V1a subtype receptors ([3H]Manning ligand radioligand binding)
Conditions: for pIC50: value in parentheses; for inhibition at 0.1 µM: 100 nM
Outline: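 Membranes from CHO cells expressing human V1a, 25–50 μg protein/well, incubated 60 min at room temperature with [3H]Manning ligand (20 μL of 8 nM stock) in 50 mM Tris-HCl pH 7.4 with BSA, MgCl2 and protease inhibitors. Filtration then scintillation counting; reported as % inhibition or IC50 (nM).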

T1 sequence (P37288 whole entry): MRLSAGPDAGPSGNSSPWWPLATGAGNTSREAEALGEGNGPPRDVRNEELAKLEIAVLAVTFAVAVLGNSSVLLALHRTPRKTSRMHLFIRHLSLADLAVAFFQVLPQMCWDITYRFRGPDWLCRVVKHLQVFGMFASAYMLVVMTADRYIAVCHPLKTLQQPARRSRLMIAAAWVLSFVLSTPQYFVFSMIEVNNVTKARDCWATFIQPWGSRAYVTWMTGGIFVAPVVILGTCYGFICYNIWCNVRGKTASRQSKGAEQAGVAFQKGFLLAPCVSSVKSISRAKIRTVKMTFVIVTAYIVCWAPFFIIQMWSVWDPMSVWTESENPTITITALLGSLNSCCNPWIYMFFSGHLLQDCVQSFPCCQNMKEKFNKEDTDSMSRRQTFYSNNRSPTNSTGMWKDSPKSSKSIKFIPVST

Structure (SMILES) | pIC50 | inhibition at 0.1 µM
Cc1cc(C(=O)N2Cc3ccc(C(=O)N(C)Cc4cccnc4)n3Cc3ccccc32)ccc1-c1ccccc1C(F)(F)F [Example 112, N-Methyl-10-{[2-methyl-2′-trifluoromethyl-[1,1′-biphenyl]-4-yl]carbonyl}-N-(3-pyridinylmethyl)-10,11-dihydro-5H-pyrrolo[2,1-c][1,4]benzodiazepine-3-carboxamide] | 5.80 | –
COc1ccccc1-c1ccc(C(=O)N2Cc3ccc(C(=O)N(C)Cc4cccnc4)n3Cc3ccccc32)cc1C [Example 101, 10-[(2′-Methoxy-2-methyl-[1,1′-biphenyl]-4-yl)carbonyl]-N-methyl-N-(3-pyridinylmethyl)-10,11-dihydro-5H-pyrrolo[2,1-c][1,4]benzodiazepine-3-carboxamide] | 6.45 | –
COc1ccccc1-c1ccc(C(=O)N2Cc3ccc(C(=O)NCc4ccncc4)n3Cc3ccccc32)cc1C [Example 88, 10-[(2′-Methoxy-2-methyl-[1,1′-biphenyl]-4-yl)carbonyl]-N-(4-pyridinylmethyl)-10,11-dihydro-5H-pyrrolo[2,1-c][1,4]benzodiazepine-3-carboxamide] | – | 8%

Other lines, results leading:

pIC50 | inhibition at 0.1 µM | Structure (SMILES)
6.75 | – | COc1cccc(-c2ccc(C(=O)N3Cc4ccc(C(=O)N(C)CCc5ccccn5)n4Cc4ccccc43)cc2C)c1 [Example 62, 10-[(3′-Methoxy-2-methyl-[1,1′-biphenyl]-4-yl)carbonyl]-N-methyl-N-[2-(2-pyridinyl)ethyl]-10,11-dihydro-5H-pyrrolo[2,1-c][1,4]benzodiazepine-3-carboxamide]
< 5.52 | – | Cc1cc(C(=O)N2Cc3ccc(C(=O)N4CCN(Cc5ccc[n+]([O-])c5C)CC4)n3Cc3ccccc32)ccc1-c1ccccc1C(F)(F)F [Example 3, 3-({4-[(2-Methyl-1-oxidopyridin-3-yl)methyl]piperazin-1-yl}carbonyl)-10-{[2-methyl-2′-trifluoromethyl-[1,1′-biphenyl]-4-yl]carbonyl}-10,11-dihydro-5H-pyrrolo[2,1-c][1,4]benzodiazepine]
– | 1% | O=C(c1ccc2n1Cc1ccccc1N(C(=O)c1ccc(-c3cccc4ccccc34)cc1Cl)C2)N1CCN(c2ccccn2)CC1 [Example 86, {10-[2-Chloro-4-(naphthalen-1-yl)benzoyl]-10,11-dihydro-5H-pyrrolo[2,1-c][1,4]benzodiazepin-3-yl}[4-(2-pyridinyl)-1-piperazinyl]methanone]
